Test results: patent US20170298081A1, “CONDENSED HETEROCYCLIC COMPOUND” (KASUMA PARTNERS INC., priority 2014, published 2017)

What was measured:
PCSK9 protein = experiment: Influence of test compound on PCSK9 protein production amount in HepG2 cells (ELISA); format: cell-based, human; conditions: about 24 hours treatment, intracellular PCSK9 protein by ELISA, read-out: IC50 (50% PCSK9 production-suppressing concentration)
Protocol: A test compound was added to culture supernatant of cells of the human liver cancer-derived cell strain, HepG2 cells, and intracellular amount of the PCSK9 protein was measured by the enzyme-linked immunosorbent assay (ELISA) after 24 hours. Specifically, the HepG2 cells were inoculated into wells of a 96-well microplate at a density of 5 to 7.5×10^4 cells/well, and the culture supernatant was exchanged with the MEM medium containing 10% lipoprotein deficient serum (LPDS) on the next day. After the cells were further cultured for one day, the culture supernatant was exchanged with the 10% LPDS-containing MEM medium containing a test compound, and the cells were treated with the compound for about 24 hours. The medium for treating the cells was prepared by dissolving the test compound in dimethyl sulfoxide (DMSO), and adding the resulting solution to the 10% LPDS-containing medium. The medium for treating cells for control was prepared by adding DMSO to the 10% LPDS-containing medium at the same final concentration. After completion of the treatment of the cells, a solubilization buffer (1% Nonidet P-40 in phosphate buffered saline) was added to the cells to extract proteins, and they were used as a sample.
The PCSK9 protein concentration and the total protein concentration in the sample were measured by using Human PCSK9 ELISA Kit produced by R&D Systems (Cat. No. DPC900), and BCA Protein Assay Reagent. Kit produced by Thermo Scientific (Cat. No. 23227) according to the protocols described in the attached manuals, respectively. The PCSK9 protein concentration in each sample was calculated as a concentration per unit mass of proteins. Then, by using PCSK9 production suppressing ratios at various concentrations obtained in accordance with the equation mentioned below, 50% PCSK9 production-suppressing concentration (IC50) of each compound was calculated with a linear regression equation.
Equation: PCSK9 production-suppressing ratio (%)=[(Average PCSK9 protein concentration in control group−Average PCSK9 protein concentration in test compound-treated group)/Average PCSK9 protein concentration in control group]×100

[1] = test system: dietary hyperlipidemia hamsters; experiment: Efficacy test in dietary hyperlipidemia hamsters (LDL cholesterol decreasing ratio); format: in vivo, Slc:Syrian male hamsters; conditions: oral once a day for seven days, high fat diet hamsters
Protocol: As test animals, the Slc:Syrian male hamsters were used. In order to create dietary hyperlipidemia models, the hamsters were fed ad libitum with a high fat diet (mixed diet of 0.5% cholesterol and 10% palm oil) for a period from two weeks before the start of the administration of the test compound to the end of the experiment. Blood was collected one day before the day of the start of the administration, and the total blood cholesterol concentration was measured by the direct method using an automatic analyzer. On the basis of this total blood cholesterol concentration, the animals were divided into groups. From the next day, the test compound was orally administered once a day for seven days, and the animals were dissected on the day following the day of the final administration. The LDL-cholesterol concentration in the collected blood was measured by the direct method using an automatic analyzer, and LDL cholesterol decreasing ratio was calculated in accordance with the following equation for each group.
Equation: LDL cholesterol decreasing ratio (%)=[(Average LDL-cholesterol concentration of control group−Average LDL-cholesterol concentration of test compound-administered group)/Average LDL-cholesterol concentration of control group]×100

IC50 (PCSK9 protein) [nM]	Compound	other results
25.6	[O-][n+]1ccc2c(ccc3oc(-c4ccc(C(F)(F)F)cc4)nc32)c1 [Example 43, 2-[4-(Trifluoromethyl)phenyl]oxazolo[4,5-f]isoquinoline 7-oxide]	
24.5	FC(F)(F)c1ccc(-c2nc3cccc(C(F)(F)F)c3o2)cc1 [Example 25, 7-(Trifluoromethyl)-2-[4-(trifluoromethyl)phenyl]benzoxazole]	
5.17	N#Cc1cc(Cl)c2oc(-c3ccc(C(F)(F)F)cc3)nc2c1N [Example 36, 4-Amino-7-chloro-5-cyano-2-(4-trifluoromethylphenyl)benzoxazole]	
27.3	N#Cc1ccc(N)c2nc(-c3ccc(C(F)(F)F)cc3)oc12 [Example 38]	
20.2	Nc1c(Cl)cc(Cl)c2oc(-c3ccc(C(F)(F)F)cc3)nc12 [Example 34, 4-Amino-5,7-dichloro-2-(4-trifluoromethylphenyl)benzoxazole]	
0.0182	N#Cc1ccc2nc(-c3ccc(C(F)(F)F)cc3)oc2c1Cl [Example 9, 7-Chloro-6-cyano-2-(4-trifluoromethylphenyl)benzoxazole]	
27	N#Cc1ccc2nc(-c3ccc(C(F)(F)F)cc3)oc2c1 [Example 29, 6-Cyano-2-[4-(trifluoromethyl)phenyl]benzoxazole]	
	CC(C)OC(=O)C(C)(C)Oc1ccc(C(=O)c2ccc(Cl)cc2)cc1 [Phenofibrate, reference compound]	LDL cholesterol decreasing ratio (%) ([1]; dose 50 mg/kg): 25.7%
8.19	Fc1c(C(F)(F)F)ccc2nc(-c3ccc(C(F)(F)F)cc3)oc12 [Example 3, 7-Fluoro-6-trifluoromethyl-2-(4-trifluoromethylphenyl)benzoxazole]	
13.9	Clc1ccc2nc(-c3nc4c(Cl)cccc4o3)sc2c1 [Example 44, 4-Chloro-2-(6-chloro-benzothiazol-2-yl)benzoxazole]	
1.24	Nc1ccc(Cl)c2oc(-c3ccc(C(F)(F)F)cc3)nc12 [Example 35B, 4-Amino-7-chloro-2-(4-trifluoromethylphenyl)benzoxazole]	melting point: 149 to 150 °C
2.94	Fc1c(Cl)cc2nc(-c3ccc(C(F)(F)F)cc3)oc2c1Cl [Example 12, 5,7-Dichloro-6-fluoro-2-(4-trifluoromethylphenyl)benzoxazole]	
2.68	Nc1c(-c2ccc(C(F)(F)F)cc2)[nH]c2c(Cl)c(Cl)ccc12 [Example 45, 3-Amino-6,7-dichloro-2-(4-trifluoromethylphenyl)indole]	
4.96	Nc1ccc(Br)c2oc(-c3ccc(C(F)(F)F)cc3)nc12 [Example 33, 4-Amino-7-bromo-2-(4-trifluoromethylphenyl)benzoxazole]	
1.35	FC(F)(F)c1ccc(-c2nc3cc(C(F)(F)F)cc(Cl)c3o2)cc1 [Example 28, 7-Chloro-5-(trifluoromethyl)-2-[4-(trifluoromethyl)phenyl]benzoxazole]	LDL cholesterol decreasing ratio (%) ([1]; dose 0.2 mg/kg): 63.6%
0.153	FC(F)(F)c1ccc(-c2nc3c(C(F)(F)F)ccc(Cl)c3o2)cc1 [Example 8, 7-Chloro-4-trifluoromethyl-2-(4-trifluoromethylphenyl)benzoxazole]	
> 10000	COc1ccc2cc3[n+](cc2c1OC)CCc1cc2c(cc1-3)OCO2 [Berberine chloride, reference compound]	
16.3	O=C(O)CCC(=O)Nc1ccc2nc(-c3ccc(C(F)(F)F)cc3)oc2c1C(F)(F)F [Example 18, 6-(3-Carbonylpropanamido)-7-trifluoromethyl-2-(4-trifluoromethylphenyl)benzoxazole]	

IC50 (PCSK9 protein) [nM]	Compound	other results
12.3	FC(F)(F)c1ccc(-c2nc3cc(Cl)c(C(F)(F)F)cc3o2)cc1 [Example 27, 5-Chloro-6-(trifluoromethyl)-2-[4-(trifluoromethyl)phenyl]benzoxazole]	
	Nc1c(Cl)ccc2oc(-c3ccc(C(F)(F)F)cc3)nc12 [Example 35A, 4-Amino-5-chloro-2-(4-trifluoromethylphenyl)benzoxazole]	melting point: 132 to 134 °C
0.802	FC(F)(F)c1ccc(-c2nc3ccc(Cl)c(C(F)(F)F)c3o2)cc1 [Example 1, 6-Chloro-7-trifluoromethyl-2-(4-trifluoromethylphenyl)benzoxazole]	
29.7	FC(F)(F)c1ccc(-c2nc3c(ccc4cc[nH]c43)o2)cc1 [Example 31, 2-(4-Trifluoromethylphenyl)-8H-pyrrolo[2,3-e]benzoxazole]	
52.3	CCc1nc2c(ccc3oc(-c4ccc(C(F)(F)F)cc4)nc32)o1 [Example 23, 2-Ethyl-7(4-trifluoromethylphenyl)benzo[2,1-d:3,4-d′]bisoxazole]	
0.426	FC(F)(F)c1ccc(-c2nc3c(Cl)c(C(F)(F)F)ccc3o2)cc1 [Example 4, 4-Chloro-5-trifluoromethyl-2-(4-trifluoromethylphenyl)benzoxazole]	
3.97	CN(C)c1nc2c(ccc3oc(-c4ccc(C(F)(F)F)cc4)nc32)s1 [Example 40, 7-Dimethylamino-2-(4-trifluoromethylphenyl)thiazolo[4,5-e]benzoxazole]	
5.85	OCCNc1ccc2nc(-c3ccc(C(F)(F)F)cc3)oc2c1C(F)(F)F [Example 21, 6-(2-Hydroxyethylamino)-7-trifluoromethyl-2-(4-trifluoromethylphenyl)benzoxazole]	
19.2	NCc1cccc2oc(-c3ccc(C(F)(F)F)cc3)nc12 [Example 41, 4-Aminomethyl-2-(4-trifluoromethylphenyl)benzoxazole]	
4.54	FC(F)(F)c1ccc(-c2nc3ccc(C4CC4)c(C(F)(F)F)c3o2)cc1 [Example 14, 6-Cyclopropyl-7-trifluoromethyl-2-(4-trifluoromethylphenyl)benzoxazole]	
99	COc1cc(C#N)c(Cl)c2oc(-c3ccc(C(F)(F)F)cc3)nc12 [Example 22, 7-Chloro-6-cyano-4-methoxy-2-(4-trifluoromenthylphenyl)benzoxazole]	
2.5	FC(F)(F)c1ccc(-c2nc3ccc(I)c(Cl)c3o2)cc1 [Example 6, 7-Chloro-6-iodo-2-(4-trifluoromethylphenyl)benzoxazole]	LDL cholesterol decreasing ratio (%) ([1]; dose 5 mg/kg): 41.8%
21.4	FC(F)(F)c1ccc(-c2nc3ccc(C(F)(F)F)cc3o2)cc1 [Example 24, 6-(Trifluoromethyl)-2-[4-(trifluoromethyl)phenyl]benzoxazole]	LDL cholesterol decreasing ratio (%) ([1]; dose 1 mg/kg): 32.6%
2.08	CC(=O)Nc1ccc2nc(-c3ccc(C(F)(F)F)cc3)oc2c1C(F)(F)F [Example 16, 6-Acetamido-7-trifluoromethyl-2-(4-trifluoromethylphenyl)benzoxazole]	
0.036	FC(F)(F)c1ccc(-c2nc3ccc(C(F)(F)F)c(Cl)c3o2)cc1 [Example 7, 7-Chloro-6-trifluoromethyl-2-(4-trifluoromethylphenyl)benzoxazole]	LDL cholesterol decreasing ratio (%) ([1]; dose 0.01 mg/kg): 45.5%; LDL cholesterol decreasing ratio (%) ([1]; dose 0.04 mg/kg): 56.9%
3.95	FC(F)(F)c1ccc(-c2nc3ccc(NC4CC4)c(C(F)(F)F)c3o2)cc1 [Example 20, 6-(Cyclopropylamino)-7-trifluoromethyl-2-(4-trifluoromethylphenyl)benzoxazole]	
1.34	N#Cc1cc(Cl)c2nc(-c3ccc(C(F)(F)F)cc3)oc2c1 [Example 11, 4-Chloro-6-cyano-2-(4-trifluoromethylphenyl)benzoxazole]	
45.4	CCN(CC)c1nc2c(ccc3cc(-c4ccc(C(F)(F)F)cc4)[nH]c32)o1 [Example 47, 2-Diethylamino-7-(4-trifluoromenthylphenyl)-8H-pyrrolo[2,3-e]benzoxazole]	

Compound	IC50 (PCSK9 protein) [nM]	other results
N#Cc1ccc2nc(-c3ccc(C(F)(F)F)cc3)oc2c1C(F)(F)F [Example 19, 6-Cyano-7-trifluoromethyl-2-(4-trifluoromethylphenyl)benzoxazole]	0.188	LDL cholesterol decreasing ratio (%) ([1]; dose 1 mg/kg): 35.2%
